Each block holds one compound with its values, some of them ahead of it.
Assays:
[1] = target: T1, terminal deoxyribonucleotidyl transferase (TdT) (Bos taurus, UniProt P06526); test: TdT assay (3H-dGMP incorporation) with purified TdT; format: biochemical, calf; conditions: for CMP 3H--dGMP inc.: 200 μM compound, 35° C., 1 hour, 10 μM 3H-dGTP, DMSO only control 12,131; for CMP Incorporated, TdT: additive at 400 M (so in the source), DMSO control 12,131; for TdT inhibition (in words): concentration not given
T1 construct: classical preparation may be proteolysed two-subunit form of one gene product
Procedure: (§1) TdT was purified from normal calf thymus gland by a procedure utilizing the successive steps of homogenization, ion exchange […] and gel filtration. Bollum et al, "The Enzymes", (R. D. Boxer Ed.) pp. 145-171, Academic Press, New York. TdT was assayed at 35° C. for 1 hour in 0.1 ml total volume of a reaction mixture comprising 0.05 M Tris-HCl (pH 8.3), 2 mM […], 0.6 mM MnCl2, 10 μg bovine serum albumin (BSA), 1 μg oligodA14-18, 10 μM ^3 H-dGTP (d-triphosphate) and chelex distilled H2 O. When used, the 6-anilinouracil derivates were added at various concentrations in 5 μl DMSO per 100 μl reaction mix. Other DNA polymerases (α, β, and γ) were assayed using standard assay conditions, as previously described by Wright, Baril and Brown, Nucleic Acids Research, Vol. 8, No. 1, pp. 99-109, 1980.
Reaction conditions used were as noted above.

HeLa cells [2] = conditions: background statement, 'in vivo'; cited from earlier work
HeLa cell polymerase α [3] = target: T2, HeLa cell polymerase α (Homo sapiens, UniProt P09884); conditions: background statement; no other mammalian cell DNA polymerase inhibited; cited from earlier work
HeLa cell polymerase β = HeLa cell polymerase β (Homo sapiens, UniProt P06746); test: DNA polymerase β assay, standard assay conditions; format: biochemical; conditions: for effect on HeLa cell polymerase β (in words): 400 μM; for CMP Incorporated, Pol β: additive at 400 M (so in the source), DMSO control 5,221
Procedure: as §1

HeLa cell polymerase γ = target: T3, HeLa cell polymerase γ (Homo sapiens, UniProt P54098); test: DNA polymerase γ assay, standard assay conditions; format: biochemical; conditions: for effect on HeLa cell polymerase γ (in words): 400 μM; for CMP Incorporated, Pol γ: additive at 400 M (so in the source), DMSO control 7,490
T3 sequence (P54098 1-1239): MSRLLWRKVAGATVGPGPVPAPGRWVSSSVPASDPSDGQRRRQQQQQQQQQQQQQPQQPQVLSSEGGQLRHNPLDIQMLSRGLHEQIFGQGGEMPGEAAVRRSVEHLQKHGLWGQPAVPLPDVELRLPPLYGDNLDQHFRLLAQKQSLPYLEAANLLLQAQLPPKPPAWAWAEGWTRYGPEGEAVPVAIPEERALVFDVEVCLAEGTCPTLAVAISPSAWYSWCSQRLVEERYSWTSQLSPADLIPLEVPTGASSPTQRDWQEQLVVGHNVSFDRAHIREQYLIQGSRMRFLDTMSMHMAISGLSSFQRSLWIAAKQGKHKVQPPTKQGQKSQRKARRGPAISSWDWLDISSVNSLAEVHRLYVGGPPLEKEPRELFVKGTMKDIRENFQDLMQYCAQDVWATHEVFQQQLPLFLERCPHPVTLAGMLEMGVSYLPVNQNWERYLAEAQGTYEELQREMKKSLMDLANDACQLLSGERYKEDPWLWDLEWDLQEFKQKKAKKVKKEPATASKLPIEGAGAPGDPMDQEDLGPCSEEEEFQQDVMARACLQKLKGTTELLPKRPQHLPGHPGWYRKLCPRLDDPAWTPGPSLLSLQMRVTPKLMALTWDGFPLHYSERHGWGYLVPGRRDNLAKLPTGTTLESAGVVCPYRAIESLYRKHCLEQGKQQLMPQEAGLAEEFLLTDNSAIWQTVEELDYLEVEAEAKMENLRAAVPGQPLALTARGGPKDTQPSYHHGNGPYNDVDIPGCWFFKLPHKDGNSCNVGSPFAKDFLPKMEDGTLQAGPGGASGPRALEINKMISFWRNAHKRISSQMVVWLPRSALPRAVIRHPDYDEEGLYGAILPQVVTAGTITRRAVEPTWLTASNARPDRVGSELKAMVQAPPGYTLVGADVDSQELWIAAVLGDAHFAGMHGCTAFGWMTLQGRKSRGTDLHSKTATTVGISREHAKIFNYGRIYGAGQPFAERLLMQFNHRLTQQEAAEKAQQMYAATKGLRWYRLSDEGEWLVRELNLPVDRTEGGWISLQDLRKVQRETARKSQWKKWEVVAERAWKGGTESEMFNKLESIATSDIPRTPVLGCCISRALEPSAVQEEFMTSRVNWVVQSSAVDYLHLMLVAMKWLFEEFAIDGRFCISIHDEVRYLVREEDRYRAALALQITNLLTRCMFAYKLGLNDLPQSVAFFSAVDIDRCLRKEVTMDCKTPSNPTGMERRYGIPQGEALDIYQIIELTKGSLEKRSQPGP
T3 sequence (Q9UHN1 2-485 partner): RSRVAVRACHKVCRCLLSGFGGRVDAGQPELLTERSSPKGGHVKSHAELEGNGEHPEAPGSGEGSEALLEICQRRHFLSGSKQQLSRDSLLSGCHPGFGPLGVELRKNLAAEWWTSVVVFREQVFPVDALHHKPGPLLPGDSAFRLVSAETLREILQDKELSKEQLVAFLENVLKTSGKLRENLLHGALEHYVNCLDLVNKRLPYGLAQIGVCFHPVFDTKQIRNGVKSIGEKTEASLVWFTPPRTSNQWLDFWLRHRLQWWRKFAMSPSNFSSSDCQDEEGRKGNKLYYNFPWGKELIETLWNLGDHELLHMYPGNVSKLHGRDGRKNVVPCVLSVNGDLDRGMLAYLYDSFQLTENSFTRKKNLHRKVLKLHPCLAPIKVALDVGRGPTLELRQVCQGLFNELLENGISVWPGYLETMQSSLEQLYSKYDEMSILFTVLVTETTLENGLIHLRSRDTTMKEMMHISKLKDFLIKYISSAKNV
Procedure: as §1

HeLa cell polymerase α [4] = target: T2, HeLa cell polymerase α; test: DNA polymerase α assay, standard assay conditions; format: biochemical; conditions: for effect on HeLa cell polymerase α (in words): 400 μM; for CMP Incorporated, Pol α: additive at 400 M (so in the source), DMSO control 15,040
Procedure: as §1

HeLa cells [5] = test: Inhibition of cell proliferation, HeLa (TdT-negative); format: cell-based, Human; conditions: even at 400 μM; 1% DMSO; viable cells at 72 hours
Procedure: (§2) HeLa cells, El-4cells, L1210 cells were grown in suspended cell culture under standard conditions in RPMI medium, at 37° C. in moist air containing 5% CO2. All inhibitions were performed using a final concentration of 1% DMSO as inhibitor solvent. Control cells were therefore grown in the presence of 1% DMSO.
(§3) Compound GW18C (6-(p-aminoanilo) uracil) was prepared as a 40 mM stock solution in pre-heated DMSO. This stock solution was progressively diluted to give a range of operating inhibitory concentrations between 1×10^-9 M and […]. Inhibition was measured by comparing the number of viable cells in control cultures at the end of 72 hours with the number in cultures exposed to inhibitor.

L1210 cells = test: Inhibition of cell proliferation, L1210 (TdT-negative); format: cell-based, Mouse; conditions: even at 400 μM; 1% DMSO; viable cells at 72 hours
Procedure: as §2, §3

EL-4 = test: Inhibition of cell proliferation, EL-4 (TdT-positive); format: cell-based, Mouse
Procedure: as §2, §3

T2 sequence (P09884 whole entry): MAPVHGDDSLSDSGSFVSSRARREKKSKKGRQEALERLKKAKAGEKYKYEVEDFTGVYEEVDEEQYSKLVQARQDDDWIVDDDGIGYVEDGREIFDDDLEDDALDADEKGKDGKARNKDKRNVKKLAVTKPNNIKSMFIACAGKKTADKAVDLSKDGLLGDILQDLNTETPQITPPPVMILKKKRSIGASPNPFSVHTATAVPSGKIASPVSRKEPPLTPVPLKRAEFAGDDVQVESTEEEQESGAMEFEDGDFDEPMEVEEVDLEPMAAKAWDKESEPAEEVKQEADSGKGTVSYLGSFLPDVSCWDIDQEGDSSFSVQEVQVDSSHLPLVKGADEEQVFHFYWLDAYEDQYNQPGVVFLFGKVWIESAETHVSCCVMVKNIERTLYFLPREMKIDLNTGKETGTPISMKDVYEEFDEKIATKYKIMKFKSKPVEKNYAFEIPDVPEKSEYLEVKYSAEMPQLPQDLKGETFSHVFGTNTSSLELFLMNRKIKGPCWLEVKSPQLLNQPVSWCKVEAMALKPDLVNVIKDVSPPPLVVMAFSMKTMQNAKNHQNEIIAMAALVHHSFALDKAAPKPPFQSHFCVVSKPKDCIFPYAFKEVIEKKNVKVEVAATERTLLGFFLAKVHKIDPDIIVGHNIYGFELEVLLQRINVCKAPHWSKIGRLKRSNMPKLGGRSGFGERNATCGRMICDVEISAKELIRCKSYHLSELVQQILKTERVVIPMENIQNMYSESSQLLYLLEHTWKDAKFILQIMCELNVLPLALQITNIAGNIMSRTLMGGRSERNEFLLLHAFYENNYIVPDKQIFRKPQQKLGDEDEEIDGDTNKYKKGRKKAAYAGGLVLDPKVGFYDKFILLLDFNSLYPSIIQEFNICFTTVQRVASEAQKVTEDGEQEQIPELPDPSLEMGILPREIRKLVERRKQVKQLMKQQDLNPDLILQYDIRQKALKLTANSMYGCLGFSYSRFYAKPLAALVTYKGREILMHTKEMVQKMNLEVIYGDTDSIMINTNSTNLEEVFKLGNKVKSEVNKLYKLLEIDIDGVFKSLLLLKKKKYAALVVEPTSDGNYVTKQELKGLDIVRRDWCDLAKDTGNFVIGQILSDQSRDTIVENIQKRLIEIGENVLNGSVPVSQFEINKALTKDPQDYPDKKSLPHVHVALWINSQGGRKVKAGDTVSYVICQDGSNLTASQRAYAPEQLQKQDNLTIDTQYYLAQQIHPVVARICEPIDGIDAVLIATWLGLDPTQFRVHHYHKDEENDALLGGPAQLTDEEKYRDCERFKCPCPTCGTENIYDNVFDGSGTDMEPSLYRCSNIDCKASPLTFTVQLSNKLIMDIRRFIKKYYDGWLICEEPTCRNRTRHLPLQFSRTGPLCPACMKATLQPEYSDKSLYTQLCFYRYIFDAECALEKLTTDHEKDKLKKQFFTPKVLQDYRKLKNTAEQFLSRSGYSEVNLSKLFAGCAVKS
T2 sequence (Q14181 whole entry partner): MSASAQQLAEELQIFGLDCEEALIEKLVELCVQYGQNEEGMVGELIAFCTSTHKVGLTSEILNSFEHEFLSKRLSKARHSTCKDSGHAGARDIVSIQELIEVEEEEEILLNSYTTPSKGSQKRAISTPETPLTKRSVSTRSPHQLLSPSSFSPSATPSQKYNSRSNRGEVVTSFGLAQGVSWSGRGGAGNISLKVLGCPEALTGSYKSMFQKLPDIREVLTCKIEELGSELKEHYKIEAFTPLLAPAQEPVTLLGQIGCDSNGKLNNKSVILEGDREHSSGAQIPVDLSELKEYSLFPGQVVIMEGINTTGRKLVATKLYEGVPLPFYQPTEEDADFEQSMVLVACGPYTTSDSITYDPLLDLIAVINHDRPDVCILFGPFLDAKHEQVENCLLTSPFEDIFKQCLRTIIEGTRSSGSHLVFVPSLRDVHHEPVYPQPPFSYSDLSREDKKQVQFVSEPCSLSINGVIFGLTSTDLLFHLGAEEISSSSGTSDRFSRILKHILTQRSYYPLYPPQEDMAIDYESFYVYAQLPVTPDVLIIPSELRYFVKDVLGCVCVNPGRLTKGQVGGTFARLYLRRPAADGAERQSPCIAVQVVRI
T2 sequence (P49642 whole entry partner): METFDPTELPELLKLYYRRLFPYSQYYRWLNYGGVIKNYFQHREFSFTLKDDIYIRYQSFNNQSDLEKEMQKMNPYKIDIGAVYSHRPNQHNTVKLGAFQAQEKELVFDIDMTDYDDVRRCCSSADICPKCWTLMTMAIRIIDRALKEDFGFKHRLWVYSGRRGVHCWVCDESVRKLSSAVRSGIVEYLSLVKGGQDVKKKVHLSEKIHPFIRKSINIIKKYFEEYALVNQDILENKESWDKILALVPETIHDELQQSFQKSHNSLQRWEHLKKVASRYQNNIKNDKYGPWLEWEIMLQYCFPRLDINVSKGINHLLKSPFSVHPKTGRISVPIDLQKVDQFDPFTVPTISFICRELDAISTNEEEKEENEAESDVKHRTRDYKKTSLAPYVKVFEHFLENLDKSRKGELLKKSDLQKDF
T2 sequence (P49643 whole entry partner): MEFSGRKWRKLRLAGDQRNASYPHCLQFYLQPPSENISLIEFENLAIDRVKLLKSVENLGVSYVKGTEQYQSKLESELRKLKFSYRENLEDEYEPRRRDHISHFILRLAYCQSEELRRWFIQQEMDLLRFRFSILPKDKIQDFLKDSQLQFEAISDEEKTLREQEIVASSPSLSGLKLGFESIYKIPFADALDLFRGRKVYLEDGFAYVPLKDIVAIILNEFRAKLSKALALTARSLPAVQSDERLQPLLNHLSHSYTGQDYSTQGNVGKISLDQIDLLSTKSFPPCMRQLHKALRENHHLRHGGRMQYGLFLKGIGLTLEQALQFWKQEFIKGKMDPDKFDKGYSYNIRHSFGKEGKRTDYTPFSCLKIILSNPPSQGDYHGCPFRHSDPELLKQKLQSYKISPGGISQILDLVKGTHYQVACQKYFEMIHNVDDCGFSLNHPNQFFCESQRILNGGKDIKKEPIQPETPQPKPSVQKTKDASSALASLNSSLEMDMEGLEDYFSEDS
T1 sequence (P06526 whole entry): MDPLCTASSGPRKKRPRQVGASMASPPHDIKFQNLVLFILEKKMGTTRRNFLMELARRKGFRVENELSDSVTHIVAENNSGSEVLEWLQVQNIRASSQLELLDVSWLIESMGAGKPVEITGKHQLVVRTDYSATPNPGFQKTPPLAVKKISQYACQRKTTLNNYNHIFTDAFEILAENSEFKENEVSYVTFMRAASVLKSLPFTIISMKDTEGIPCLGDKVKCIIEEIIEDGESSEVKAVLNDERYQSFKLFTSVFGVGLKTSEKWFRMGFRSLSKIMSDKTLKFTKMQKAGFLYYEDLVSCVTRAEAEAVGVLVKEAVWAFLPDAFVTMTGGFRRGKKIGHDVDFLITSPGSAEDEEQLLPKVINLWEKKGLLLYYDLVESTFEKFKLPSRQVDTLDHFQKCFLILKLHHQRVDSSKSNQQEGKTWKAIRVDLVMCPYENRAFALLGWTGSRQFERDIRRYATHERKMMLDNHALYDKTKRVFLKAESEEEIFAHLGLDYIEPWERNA

Compound: CCCCc1ccc(Nc2cc(=O)[nH]c(=O)[nH]2)cc1 [6-(p-n-butylanilino) uracil]
inhibition of HeLa cell division and DNA synthesis (in words) (HeLa cells [2]): selective inhibitor | inhibition of DNA polymerase alpha of HeLa cells (in words) (HeLa cell polymerase α [3]): specific inhibitor

Compound: O=c1cc(NCc2ccccc2)[nH]c(=O)[nH]1 [GW-7B, 6-(benzylamino)uracil]
CMP 3H--dGMP inc. [1]: 12,780 CMP

Compound: O=c1cc(NCCc2ccccc2)[nH]c(=O)[nH]1 [GW-7C, 6-(phenethylamino)uracil]
CMP 3H--dGMP inc. [1]: 12,391 CMP

Compound: O=c1cc(Nc2ccc3c(c2)CCC3)[nH]c(=O)[nH]1 [GW-17B, 6-(3',4'-trimethyleneanilino)uracil]
CMP 3H--dGMP inc. [1]: 12,383 CMP

Compound: COc1ccc(Nc2cc(=O)[nH]c(=O)[nH]2)cc1 [GW-17E, 6-(p-methoxyanilo)uracil]
CMP 3H--dGMP inc. [1]: 6,980 CMP | CMP Incorporated, TdT [1]: 4,964 CMP | effect on HeLa cell polymerase β (in words) (HeLa cell polymerase β): not effected | CMP Incorporated, Pol β (HeLa cell polymerase β): 5,492 cpm | effect on HeLa cell polymerase γ (in words) (HeLa cell polymerase γ): not effected | CMP Incorporated, Pol γ (HeLa cell polymerase γ): 7,223 CMP | effect on HeLa cell polymerase α (in words) (HeLa cell polymerase α [4]): not effected | CMP Incorporated, Pol α (HeLa cell polymerase α [4]): 15,217 CMP

Compound: O=c1cc(NC2CCCCC2)[nH]c(=O)[nH]1 [GW-18B, 6-(cyclohexylamino)uracil]
CMP 3H--dGMP inc. [1]: 13,442 CMP

Compound: CCCCCNc1cc(=O)[nH]c(=O)[nH]1 [GW-18E, 6-(n-pentylamino)uracil]
CMP 3H--dGMP inc. [1]: 11,674 CMP

Compound: O=c1cc(Nc2cccc3ccccc23)[nH]c(=O)[nH]1 [GW-28A, 6-(d-naphthylamino)uracil]
CMP 3H--dGMP inc. [1]: 12,038 CMP

Further lines, with some results ahead:

CMP 3H--dGMP inc. [1]: 11,988 CMP
Compound: 6-(p-methoxybenzyl)-6-aminouracil [GW-33E]

CMP 3H--dGMP inc. [1]: 10,350 CMP
Compound: O=c1cc(Nc2ccccc2)[nH]c(=O)[nH]1 [GW-9E, 6-anilinouracil]

CMP 3H--dGMP inc. [1]: 10,925 CMP
Compound: CCCCc1ccc(Nc2cc(=O)[nH]c(=O)[nH]2)cc1 [GW-11D, 6-(p-butylanilino)uracil]

CMP 3H--dGMP inc. [1]: 14,160 CMP
Compound: CC(=O)Nc1ccc(CNc2cc(=O)[nH]c(=O)[nH]2)cc1 [GW-16C, 6-(p-acetamidobenzylamino)uracil]

CMP 3H--dGMP inc. [1]: 5,198 CMP | CMP Incorporated, TdT [1]: 3,102 CMP | effect on HeLa cell polymerase β (in words) (HeLa cell polymerase β): not effected | CMP Incorporated, Pol β (HeLa cell polymerase β): 5,218 cpm | effect on HeLa cell polymerase γ (in words) (HeLa cell polymerase γ): not effected | CMP Incorporated, Pol γ (HeLa cell polymerase γ): 7,165 CMP | effect on HeLa cell polymerase α (in words) (HeLa cell polymerase α [4]): not effected | CMP Incorporated, Pol α (HeLa cell polymerase α [4]): 15,417 CMP
Compound: Nc1ccc(Nc2cc(=O)[nH]c(=O)[nH]2)cc1 [GW-18C, 6-(p-aminoanilo)uracil]
growth of HeLa cells (in words) (HeLa cells [5]): not inhibited | growth of L1210 cells (in words) (L1210 cells): not inhibited | EL-4 proliferation (in words) (EL-4; 400 μM, 1% DMSO): inhibited | inhibition at 400 µM (EL-4; Mus musculus, EL4, EL-4, at 72 hours, read-out: maximal growth inhibition): 80%

CMP 3H--dGMP inc. [1]: 11,296 CMP
Compound: O=c1cc(NCC2CCCCC2)[nH]c(=O)[nH]1 [GW-20B, 6-(cyclohexylmethylamino)uracil]

CMP 3H--dGMP inc. [1]: 12,005 CMP
Compound: CC(C)CCNc1cc(=O)[nH]c(=O)[nH]1 [GW-22A, 6-(iso-pentylamino)uracil]

CMP 3H--dGMP inc. [1]: 21,760 CMP
Compound: O=c1cc(Nc2ccc(O)cc2)[nH]c(=O)[nH]1 [GW-22E, 6-(p-hydroxyanilino)uracil]

TdT inhibition (in words) [1]: not inhibitory
Compound: O=c1cc(Nc2cccc(O)c2)[nH]c(=O)[nH]1 [GW-23A]

TdT inhibition (in words) [1]: not inhibitory
Compound: Cc1ccc(Nc2cc(=O)[nH]c(=O)[nH]2)cc1CO [GW-28D]

Reference: patent US4576948A, “Composition and method for inhibiting terminal deoxyribonucleotidyl transferase activity” (Trustees Boston University, priority 1983, dated 1986)
